Measurements as given in ChEMBL document CHEMBL4507269, “Data for DCP probe BAY-386” (2021).

Columns and labels:
[1] = molecular target: Leukocyte tyrosine kinase receptor (Homo sapiens) (UniProt P29376); settings: Compound concentration 1000.0 nM
[2] = molecular target: T1, Adenosine receptor A3 (Homo sapiens) (UniProt P0DMS8); assay: A3 (h) Eurofins-Cerep Cellular and Nuclear Receptor Functional Assays; settings: Compound concentration 10.0 uM
T1 sequence (whole entry): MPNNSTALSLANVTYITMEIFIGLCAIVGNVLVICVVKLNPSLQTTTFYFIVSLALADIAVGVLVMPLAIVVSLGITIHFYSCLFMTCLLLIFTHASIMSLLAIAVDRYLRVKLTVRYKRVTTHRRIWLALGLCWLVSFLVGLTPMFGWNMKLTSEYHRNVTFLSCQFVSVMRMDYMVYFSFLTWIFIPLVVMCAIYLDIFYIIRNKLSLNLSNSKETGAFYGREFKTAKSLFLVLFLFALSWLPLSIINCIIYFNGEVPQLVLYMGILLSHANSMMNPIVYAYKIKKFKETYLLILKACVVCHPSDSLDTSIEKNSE

[3] = molecular target: Tyrosine-protein kinase FRK (Homo sapiens) (UniProt P42685); settings: Compound concentration 1000.0 nM
[4] = molecular target: Activin receptor type-1-like (Homo sapiens) (UniProt P37023); settings: Compound concentration 1000.0 nM
[5] = molecular target: Alpha-2B adrenergic receptor (Homo sapiens) (UniProt P18089); settings: Compound concentration 10.0 uM
[6] = molecular target: Death-associated protein kinase 1 (Homo sapiens) (UniProt P53355); settings: Compound concentration 1000.0 nM
[7] = molecular target: Tyrosine-protein kinase receptor TYRO3 (Homo sapiens) (UniProt Q06418); settings: Compound concentration 1000.0 nM
[8] = molecular target: Protein kinase C eta type (Homo sapiens) (UniProt P24723); settings: Compound concentration 1000.0 nM
[9] = molecular target: Fibroblast growth factor receptor 2 (Homo sapiens) (UniProt P21802); settings: Compound concentration 1000.0 nM
[10] = molecular target: Mitogen-activated protein kinase kinase kinase 2 (Homo sapiens) (UniProt Q9Y2U5); settings: Compound concentration 1000.0 nM
[11] = molecular target: Serine/threonine-protein kinase 17A (Homo sapiens) (UniProt Q9UEE5); settings: Compound concentration 1000.0 nM
Serine/threonine-protein kinase 17A (Homo sapiens), sequence (Q9UEE5 whole entry): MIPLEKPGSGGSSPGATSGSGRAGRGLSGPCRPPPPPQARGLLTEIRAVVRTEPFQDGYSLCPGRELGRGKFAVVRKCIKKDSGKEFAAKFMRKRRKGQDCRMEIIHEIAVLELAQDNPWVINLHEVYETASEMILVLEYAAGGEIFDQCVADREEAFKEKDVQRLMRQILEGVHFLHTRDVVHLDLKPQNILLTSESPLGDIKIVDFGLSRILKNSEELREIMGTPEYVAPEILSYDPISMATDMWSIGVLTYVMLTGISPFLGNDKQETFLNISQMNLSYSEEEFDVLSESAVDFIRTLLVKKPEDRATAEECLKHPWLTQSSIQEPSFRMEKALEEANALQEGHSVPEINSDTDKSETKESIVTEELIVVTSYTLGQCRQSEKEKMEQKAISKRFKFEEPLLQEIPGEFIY

[12] = molecular target: Cyclin-dependent kinase 13 (Homo sapiens) (UniProt Q14004); settings: Compound concentration 1000.0 nM
[13] = molecular target: Rhodopsin kinase GRK1 (Homo sapiens) (UniProt Q15835); settings: Compound concentration 1000.0 nM
[14] = molecular target: Serine/threonine-protein kinase DCLK2 (Homo sapiens) (UniProt Q8N568); settings: Compound concentration 1000.0 nM
[15] = molecular target: Serine/threonine-protein kinase pim-1 (Homo sapiens) (UniProt P11309); settings: Compound concentration 1000.0 nM
[16] = molecular target: Interferon-induced, double-stranded RNA-activated protein kinase (Homo sapiens) (UniProt P19525); settings: Compound concentration 1000.0 nM
[17] = molecular target: Cyclin-dependent kinase-like 2 (Homo sapiens) (UniProt Q92772); settings: Compound concentration 1000.0 nM
[18] = system: Epidermal growth factor receptor (Homo sapiens), P00533 [UNDEFINED MUTATION]; settings: Compound concentration 1000.0 nM
[19] = molecular target: Serine/threonine-protein kinase WNK3 (Homo sapiens) (UniProt Q9BYP7); settings: Compound concentration 1000.0 nM
[20] = molecular target: ALK tyrosine kinase receptor (Homo sapiens) (UniProt Q9UM73); settings: Compound concentration 1000.0 nM
[21] = molecular target: Mitogen-activated protein kinase kinase kinase kinase 1 (Homo sapiens) (UniProt Q92918); settings: Compound concentration 1000.0 nM
[22] = molecular target: Tyrosine-protein kinase Lck (Homo sapiens) (UniProt P06239); settings: Compound concentration 1000.0 nM
Tyrosine-protein kinase Lck (Homo sapiens), sequence (P06239 2-509 limits assumed): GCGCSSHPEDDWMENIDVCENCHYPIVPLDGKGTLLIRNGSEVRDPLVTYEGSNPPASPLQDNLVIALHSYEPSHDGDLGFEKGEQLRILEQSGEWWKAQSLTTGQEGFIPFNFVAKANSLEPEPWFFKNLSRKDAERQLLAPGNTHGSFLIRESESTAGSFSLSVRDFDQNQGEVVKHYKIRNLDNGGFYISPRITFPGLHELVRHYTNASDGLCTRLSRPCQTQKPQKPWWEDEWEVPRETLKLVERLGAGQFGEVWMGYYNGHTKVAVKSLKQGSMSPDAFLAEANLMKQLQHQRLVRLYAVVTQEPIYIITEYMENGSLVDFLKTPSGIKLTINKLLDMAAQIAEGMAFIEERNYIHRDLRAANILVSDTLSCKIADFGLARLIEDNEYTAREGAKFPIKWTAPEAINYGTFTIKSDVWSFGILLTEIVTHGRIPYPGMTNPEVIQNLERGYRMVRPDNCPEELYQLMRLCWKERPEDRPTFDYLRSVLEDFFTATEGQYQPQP

[23] = molecular target: Serine/threonine-protein kinase STK11 (Homo sapiens) (UniProt Q15831); settings: Compound concentration 1000.0 nM
Serine/threonine-protein kinase STK11 (Homo sapiens), sequence (Q15831 whole entry): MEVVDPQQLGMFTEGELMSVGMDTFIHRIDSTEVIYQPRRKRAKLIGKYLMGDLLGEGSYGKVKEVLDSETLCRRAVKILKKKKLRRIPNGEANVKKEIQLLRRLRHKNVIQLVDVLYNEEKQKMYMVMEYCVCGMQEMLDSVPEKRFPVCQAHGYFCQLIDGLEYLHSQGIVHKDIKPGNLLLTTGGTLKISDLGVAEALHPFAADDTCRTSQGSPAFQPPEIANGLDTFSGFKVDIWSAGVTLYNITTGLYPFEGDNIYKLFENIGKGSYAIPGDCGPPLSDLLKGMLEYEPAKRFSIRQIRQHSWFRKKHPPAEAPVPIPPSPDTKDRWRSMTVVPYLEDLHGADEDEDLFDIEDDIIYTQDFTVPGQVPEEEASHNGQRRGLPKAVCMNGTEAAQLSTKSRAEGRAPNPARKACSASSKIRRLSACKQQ

[24] = molecular target: Tyrosine-protein kinase Blk (Homo sapiens) (UniProt P51451); settings: Compound concentration 1000.0 nM
[25] = molecular target: Ephrin type-A receptor 7 (Homo sapiens) (UniProt Q15375); settings: Compound concentration 1000.0 nM
[26] = molecular target: Ephrin type-B receptor 6 (Homo sapiens) (UniProt O15197); settings: Compound concentration 1000.0 nM
Ephrin type-B receptor 6 (Homo sapiens), sequence (O15197 whole entry): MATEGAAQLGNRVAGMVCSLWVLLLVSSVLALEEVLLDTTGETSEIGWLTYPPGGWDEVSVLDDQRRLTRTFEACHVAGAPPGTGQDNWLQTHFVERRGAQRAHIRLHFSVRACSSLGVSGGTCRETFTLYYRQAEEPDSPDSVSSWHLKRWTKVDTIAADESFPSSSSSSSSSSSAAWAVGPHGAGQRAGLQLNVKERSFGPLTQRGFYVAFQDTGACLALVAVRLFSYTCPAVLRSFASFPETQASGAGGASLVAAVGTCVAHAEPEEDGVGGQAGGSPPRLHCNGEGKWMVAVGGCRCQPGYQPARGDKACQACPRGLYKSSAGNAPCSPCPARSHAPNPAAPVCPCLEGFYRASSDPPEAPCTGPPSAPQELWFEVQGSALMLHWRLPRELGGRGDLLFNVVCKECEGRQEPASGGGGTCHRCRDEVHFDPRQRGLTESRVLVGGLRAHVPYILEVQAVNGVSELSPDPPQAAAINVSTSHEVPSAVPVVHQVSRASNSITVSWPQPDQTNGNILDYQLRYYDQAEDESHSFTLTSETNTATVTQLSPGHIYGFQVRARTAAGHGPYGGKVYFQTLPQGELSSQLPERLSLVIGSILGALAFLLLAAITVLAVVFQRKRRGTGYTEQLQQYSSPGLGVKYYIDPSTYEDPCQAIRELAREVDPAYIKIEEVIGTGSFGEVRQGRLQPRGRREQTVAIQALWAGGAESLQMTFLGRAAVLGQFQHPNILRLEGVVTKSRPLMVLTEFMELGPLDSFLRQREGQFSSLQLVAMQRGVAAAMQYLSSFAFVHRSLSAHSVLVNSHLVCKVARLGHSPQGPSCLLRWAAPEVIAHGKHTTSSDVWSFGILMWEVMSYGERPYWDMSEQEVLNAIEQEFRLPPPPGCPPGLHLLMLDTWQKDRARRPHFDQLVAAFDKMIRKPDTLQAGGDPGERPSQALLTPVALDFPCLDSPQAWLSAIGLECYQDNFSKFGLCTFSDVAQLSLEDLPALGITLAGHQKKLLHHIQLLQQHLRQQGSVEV

[27] = molecular target: Serine/threonine-protein kinase WNK1 (Homo sapiens) (UniProt Q9H4A3); settings: Compound concentration 1000.0 nM
[28] = molecular target: Protein-tyrosine kinase 6 (Homo sapiens) (UniProt Q13882); settings: Compound concentration 1000.0 nM
[29] = molecular target: Megakaryocyte-associated tyrosine-protein kinase (Homo sapiens) (UniProt P42679); settings: Compound concentration 1000.0 nM
[30] = molecular target: Transient receptor potential cation channel subfamily M member 6 (Homo sapiens) (UniProt Q9BX84); settings: Compound concentration 1000.0 nM
Transient receptor potential cation channel subfamily M member 6 (Homo sapiens), sequence (Q9BX84 whole entry): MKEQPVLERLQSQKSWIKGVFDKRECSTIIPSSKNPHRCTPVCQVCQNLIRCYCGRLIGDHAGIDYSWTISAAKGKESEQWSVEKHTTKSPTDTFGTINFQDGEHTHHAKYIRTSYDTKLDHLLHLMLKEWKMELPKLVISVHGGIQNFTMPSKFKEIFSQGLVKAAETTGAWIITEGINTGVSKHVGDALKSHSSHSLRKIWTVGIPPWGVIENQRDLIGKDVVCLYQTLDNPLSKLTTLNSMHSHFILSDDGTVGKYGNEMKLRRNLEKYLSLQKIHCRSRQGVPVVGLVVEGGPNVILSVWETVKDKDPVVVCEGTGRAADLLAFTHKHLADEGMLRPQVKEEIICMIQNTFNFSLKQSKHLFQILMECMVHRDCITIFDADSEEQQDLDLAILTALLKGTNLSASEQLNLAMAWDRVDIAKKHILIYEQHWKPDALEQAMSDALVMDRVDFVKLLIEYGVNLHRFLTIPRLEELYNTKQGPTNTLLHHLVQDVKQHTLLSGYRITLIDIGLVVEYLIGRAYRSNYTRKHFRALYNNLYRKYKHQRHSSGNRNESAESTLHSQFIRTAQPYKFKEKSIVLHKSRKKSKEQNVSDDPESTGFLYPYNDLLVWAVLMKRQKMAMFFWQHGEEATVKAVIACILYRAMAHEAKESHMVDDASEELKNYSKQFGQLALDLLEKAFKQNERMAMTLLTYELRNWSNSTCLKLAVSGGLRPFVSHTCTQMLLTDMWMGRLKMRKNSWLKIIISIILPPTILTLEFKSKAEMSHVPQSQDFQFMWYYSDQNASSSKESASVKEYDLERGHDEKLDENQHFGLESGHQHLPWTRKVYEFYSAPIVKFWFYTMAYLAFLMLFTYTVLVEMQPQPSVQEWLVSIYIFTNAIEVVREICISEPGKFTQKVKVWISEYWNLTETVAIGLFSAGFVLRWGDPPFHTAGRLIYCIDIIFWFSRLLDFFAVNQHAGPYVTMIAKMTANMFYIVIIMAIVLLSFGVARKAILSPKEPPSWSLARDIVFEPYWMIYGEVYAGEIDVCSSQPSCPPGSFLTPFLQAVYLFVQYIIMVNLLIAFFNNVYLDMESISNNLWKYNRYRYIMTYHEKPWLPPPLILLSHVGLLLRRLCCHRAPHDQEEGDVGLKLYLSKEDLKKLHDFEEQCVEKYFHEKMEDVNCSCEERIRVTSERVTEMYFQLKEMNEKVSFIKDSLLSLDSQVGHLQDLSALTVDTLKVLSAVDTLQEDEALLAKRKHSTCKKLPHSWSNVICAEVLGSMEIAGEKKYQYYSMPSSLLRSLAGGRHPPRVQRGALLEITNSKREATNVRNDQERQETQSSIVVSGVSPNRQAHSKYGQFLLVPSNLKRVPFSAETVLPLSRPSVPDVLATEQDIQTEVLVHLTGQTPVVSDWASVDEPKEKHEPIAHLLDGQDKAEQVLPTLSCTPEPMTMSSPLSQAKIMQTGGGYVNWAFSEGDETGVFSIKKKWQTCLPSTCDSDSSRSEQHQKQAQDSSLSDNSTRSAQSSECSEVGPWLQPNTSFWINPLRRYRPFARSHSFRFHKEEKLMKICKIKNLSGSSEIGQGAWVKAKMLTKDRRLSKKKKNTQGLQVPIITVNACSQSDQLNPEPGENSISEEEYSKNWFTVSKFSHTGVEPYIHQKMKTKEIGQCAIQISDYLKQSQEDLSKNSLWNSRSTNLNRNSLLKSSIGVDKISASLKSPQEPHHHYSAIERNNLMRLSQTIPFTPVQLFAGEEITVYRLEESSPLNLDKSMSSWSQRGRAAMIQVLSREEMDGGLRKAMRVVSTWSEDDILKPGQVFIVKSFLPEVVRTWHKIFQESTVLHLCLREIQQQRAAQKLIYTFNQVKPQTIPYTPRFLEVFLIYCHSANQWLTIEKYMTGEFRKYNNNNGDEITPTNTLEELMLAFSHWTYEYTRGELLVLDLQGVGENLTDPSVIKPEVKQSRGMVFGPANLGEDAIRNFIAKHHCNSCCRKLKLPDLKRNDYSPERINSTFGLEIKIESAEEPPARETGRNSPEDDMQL

[31] = molecular target: Serine/threonine-protein kinase TBK1 (Homo sapiens) (UniProt Q9UHD2); settings: Compound concentration 1000.0 nM
[32] = molecular target: RAC-beta serine/threonine-protein kinase (Homo sapiens) (UniProt P31751); settings: Compound concentration 1000.0 nM
[33] = molecular target: Mitogen-activated protein kinase 4 (Homo sapiens) (UniProt P31152); settings: Compound concentration 1000.0 nM
[34] = molecular target: Muscarinic acetylcholine receptor M3 (Homo sapiens) (UniProt P20309); settings: Compound concentration 10.0 uM
Muscarinic acetylcholine receptor M3 (Homo sapiens), sequence (P20309 whole entry, looked up): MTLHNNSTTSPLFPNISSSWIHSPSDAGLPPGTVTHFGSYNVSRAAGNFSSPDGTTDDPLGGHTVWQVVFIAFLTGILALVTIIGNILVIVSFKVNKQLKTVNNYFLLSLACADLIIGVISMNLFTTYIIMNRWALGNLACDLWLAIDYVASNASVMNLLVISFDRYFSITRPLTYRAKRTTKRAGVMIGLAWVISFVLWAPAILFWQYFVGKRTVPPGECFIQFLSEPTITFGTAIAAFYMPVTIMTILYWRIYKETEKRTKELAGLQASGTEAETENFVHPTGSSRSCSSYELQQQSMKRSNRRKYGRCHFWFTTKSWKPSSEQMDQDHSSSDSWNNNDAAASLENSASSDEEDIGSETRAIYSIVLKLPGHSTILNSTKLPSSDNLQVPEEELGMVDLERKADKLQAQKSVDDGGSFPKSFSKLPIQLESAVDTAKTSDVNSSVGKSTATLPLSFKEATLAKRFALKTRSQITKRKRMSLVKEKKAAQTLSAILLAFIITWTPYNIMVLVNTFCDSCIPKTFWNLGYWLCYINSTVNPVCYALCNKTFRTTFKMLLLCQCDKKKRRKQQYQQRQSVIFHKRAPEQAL

[35] = molecular target: Protein kinase C theta type (Homo sapiens) (UniProt Q04759); settings: Compound concentration 1000.0 nM
[36] = molecular target: Leucine-rich repeat serine/threonine-protein kinase 2 (Homo sapiens) (UniProt Q5S007); settings: Compound concentration 1000.0 nM
[37] = molecular target: Ephrin type-A receptor 4 (Homo sapiens) (UniProt P54764); settings: Compound concentration 1000.0 nM
[38] = molecular target: Ribosomal protein S6 kinase alpha-5 (Homo sapiens) (UniProt O75582); settings: Compound concentration 1000.0 nM
[39] = molecular target: Tyrosine-protein kinase Fer (Homo sapiens) (UniProt P16591); settings: Compound concentration 1000.0 nM
[40] = molecular target: Non-receptor tyrosine-protein kinase TYK2 (Homo sapiens) (UniProt P29597); settings: Compound concentration 1000.0 nM
[41] = molecular target: Serine/threonine-protein kinase N1 (Homo sapiens) (UniProt Q16512); settings: Compound concentration 1000.0 nM

Compound `O=C(N1CCS(=O)(=O)CC1)N1C[C@H](c2ccc(OC(F)(F)F)cc2)C[C@H](c2nc(C3CC3)no2)C1` [BAY-386] has a residual activity [1] of 100%, a % Inhibition of Control Agonist Response (Mean n=2) [2] of -13.1% and a % of Control Agonist Response (Mean n=2) [2] of 2.5%. For the same compound, the residual activity [3] was 100%, the residual activity [4] was 100% and the inhibition [5] was 2.41%. It also gave a residual activity [6] of 92%, a residual activity [7] of 98% and a residual activity [8] of 100%. It also gave a residual activity [9] of 94%, a residual activity [10] of 100% and a residual activity [11] of 100%. For the same compound, the residual activity [12] was 100%, the residual activity [13] was 92% and the residual activity [14] was 0%. The residual activity [15] was 100%, the residual activity [16] was 100% and the residual activity [17] was 100%. For the same compound, the residual activity [18] was 100%, the residual activity [19] was 99% and the residual activity [20] was 100%. It also gave a residual activity [21] of 100%, a residual activity [22] of 100% and a residual activity [23] of 92%. For the same compound, the residual activity [24] was 100%, the residual activity [25] was 96% and the residual activity [26] was 100%. For the same compound, the residual activity [27] was 100%, the residual activity [28] was 100% and the residual activity [29] was 100%. For the same compound, the residual activity [30] was 100%, the residual activity [31] was 94% and the residual activity [32] was 90%. For the same compound, the residual activity [33] was 100%, the inhibition [34] was -2.11% and the residual activity [35] was 86%. For the same compound, the residual activity [36] was 100%, the residual activity [37] was 100% and the residual activity [38] was 100%. It also gave a residual activity [39] of 100%, a residual activity [40] of 94% and a residual activity [41] of 100%.
With `Cc1noc([C@H]2C[C@@H](c3ccc(C(F)(F)F)cc3)CN(C(=O)N3CCS(=O)(=O)C3)C2)n1` [BAY-448] the residual activity [1] was 100%, the % Inhibition of Control Agonist Response (Mean n=2) [2] was 12.2% and the % of Control Agonist Response (Mean n=2) [2] was 19.2%. It also gave a residual activity [3] of 100%, a residual activity [4] of 100% and an inhibition [5] of -2.77%. It also gave a residual activity [6] of 100%, a residual activity [7] of 100% and a residual activity [8] of 95%. The residual activity [9] was 85%, the residual activity [10] was 99% and the residual activity [11] was 100%. For the same compound, the residual activity [12] was 96%, the residual activity [13] was 82% and the residual activity [14] was 100%. The residual activity [15] was 100%, the residual activity [16] was 100% and the residual activity [17] was 100%. For the same compound, the residual activity [18] was 78%, the residual activity [19] was 76% and the residual activity [20] was 100%. The residual activity [21] was 100%, the residual activity [22] was 100% and the residual activity [23] was 100%. The residual activity [24] was 100%, the residual activity [25] was 100% and the residual activity [26] was 73%. It also gave a residual activity [27] of 86%, a residual activity [28] of 100% and a residual activity [29] of 100%. For the same compound, the residual activity [30] was 100%, the residual activity [31] was 68% and the residual activity [32] was 96%. It also gave a residual activity [33] of 100%, an inhibition [34] of -1.45% and a residual activity [35] of 87%. It also gave a residual activity [36] of 65%, a residual activity [37] of 100% and a residual activity [38] of 85%. The residual activity [39] was 82%, the residual activity [40] was 100% and the residual activity [41] was 100%.
